One experiment concerns KB. Briefly: Antiproliferative activity against human KB cells after 72 hrs by methylene blue dye assay. The experiment is classed as functional, cell-based.
The next experiment concerns NCI-H460. Nature of the experiment: Antiproliferative activity against human H460 cells after 72 hrs by methylene blue dye assay. It is filed as functional, cell-based. The following applies: NCI-H460, 72 h.
The subject of the next experiment is MKN-45. Nature of the experiment: Antiproliferative activity against human MKN45 cells after 72 hrs by methylene blue dye assay. It is filed as functional, cell-based. The following applies: MKN-45, 72 h.
The subject of another experiment is HT-29. Nature of the experiment: Antiproliferative activity against human HT-29 cells after 72 hrs by methylene blue dye assay. It is filed as functional, cell-based. The following applies: HT-29, 72 h.
A short description of experiment [1]: Antiproliferative activity against P-gp170/MDR expressing human KBVIN cells after 72 hrs by methylene blue dye assay. The experiment is classed as functional, cell-based.
Experiment [2] can be described thus: Displacement of [3H]colchicine from tubulin by at 1 uM scintillation proximity assay. On the technique in general: Displacement assays read how much labelled ligand stays bound in the presence of the test substance.
Experiment [3] can be described thus: Displacement of [3H]colchicine from tubulin by at 5 uM scintillation proximity assay.
The nature of experiment [4]: Inhibition of tubulin polymerization by turbidimetric assay.

pIC50: −log10 of the molar value.

Broadly, the pIC50 is the negative decadic logarithm of the IC50, by convention in mol/L.

Regarding `COc1cc(C(=O)c2cccc3cccnc23)cc(OC)c1OC`, the negative-log IC50 (pIC50) was 5.09 in the experiment with KB; 5.30 in the experiment on NCI-H460; 5.49 in the experiment on MKN-45; 5.35 in the experiment on HT-29; 5.22 in experiment [1].
For `COc1cc(C(=O)c2ccc3ncccc3c2)cc(OC)c1OC`, the values for the Activity in experiment [2] and in experiment [3] were 51% and 72%, respectively. Also, the pIC50 with KB is 7.62; in the experiment on NCI-H460, 7.44; in the experiment with MKN-45, 7.79; with HT-29, 7.61; in experiment [4] it was 5.54; in experiment [1] it was 7.67.
Turning to `COc1cc(C(=O)c2cccc3ncccc23)cc(OC)c1OC`, the pIC50 with KB is 5.54; with NCI-H460 it was 5.42; in the experiment on MKN-45, 5.92; in the experiment on HT-29 it was 5.55; in experiment [1] it was 5.64.
`COc1cc(C(=O)c2ccc3c(N)c(OC)ccc3n2)cc(OC)c1OC`: the Activity is 90% in experiment [2] and 97% in experiment [3]. For the same compound, the pIC50 in the experiment with KB was 9.52; with NCI-H460 it was 9.40; with MKN-45, 9.52; in the experiment with HT-29, 9.40; in experiment [4], 5.80; in experiment [1], 9.70.
As to `COc1cc(C(=O)c2ccnc3ccccc23)cc(OC)c1OC`, the pIC50 was 5.46 in the experiment with KB; 5.42 with NCI-H460; 6.04 with MKN-45; 5.64 in the experiment with HT-29; 5.66 in experiment [1].
In the case of `COc1ccc(/C=C\c2cc(OC)c(OC)c(OC)c2)cc1O` [COMBRETASTATIN A4], the values for the Activity in experiment [2] and in experiment [3] were 87% and 95%, respectively. Also, the pIC50 with KB is 8.62; in the experiment on NCI-H460 it was 8.59; in the experiment on MKN-45, 8.31; with HT-29, 6.08; in experiment [4], 5.68; in experiment [1], 8.72.
Turning to `COc1ccc2nc(C(=O)c3cc(OC)c(OC)c(OC)c3)ccc2c1`, the values for the Activity in experiment [2] and in experiment [3] were 40% and 68%, respectively. Moreover, the pIC50 with KB was 7.57; with NCI-H460, 7.21; in the experiment on MKN-45 it was 6.82; with HT-29, 7.11; in experiment [4], 5.46; in experiment [1], 7.67.
Turning to `COc1cc(C(=O)c2cnc3ccccc3c2)cc(OC)c1OC`, the pIC50 in the experiment on KB is 5.74; in the experiment on NCI-H460 it was 5.80; in the experiment with MKN-45, 6.25; in the experiment on HT-29, 6.00; in experiment [1] it was 5.96.
For `COc1cc(C(=O)c2ccc3c(ccc[n+]3[O-])c2)cc(OC)c1OC`, the negative logarithm of the IC50 (pIC50) in the experiment on KB is 6.08; in the experiment on NCI-H460 it was 5.96; in the experiment with MKN-45, 6.21; with HT-29 it was 6.06; in experiment [1], 6.12.
In the case of `COc1ccc2cc(C(=O)c3cc(OC)c(OC)c(OC)c3)ccc2n1`, the pIC50 with KB is 6.52; with NCI-H460 it was 6.59; with MKN-45, 6.86; with HT-29, 6.69; in experiment [4], less than 5.00; in experiment [1], 6.69.
As to `COc1cc(C(=O)c2ccc3ccccc3n2)cc(OC)c1OC`, the pIC50 with KB is 6.76; in the experiment with NCI-H460, 6.74; with MKN-45, 6.61; in the experiment on HT-29 it was 6.83; in experiment [4], less than 5.00; in experiment [1], 6.93.
Consider `COc1cc(C(=O)c2ccc3c(ccc[n+]3C)c2)cc(OC)c1OC`, for which the negative-log IC50 (pIC50) (with KB; in the experiment on NCI-H460; with MKN-45; with HT-29; in experiment [1]) was less than 5.00 each time.
For `COc1cc(C(=O)c2ccc3cccnc3c2)cc(OC)c1OC`, the pIC50 (in the experiment with KB; with NCI-H460; in the experiment on MKN-45; in the experiment with HT-29; in experiment [1]) was less than 5.00 each time.
`COc1cc(C(=O)c2ccnc3c(OC)cccc23)cc(OC)c1OC`: the pIC50 in the experiment on KB is 6.81; with NCI-H460, 6.71; in the experiment with MKN-45, 6.83; in the experiment on HT-29, 6.79; in experiment [1], 6.78.

The values above are taken from ChEMBL document CHEMBL1157572 (J Med Chem, 2010).
